Data set [1] is described as follows: thermodynamic stability of the crystalline forms. In kind it is physicochemical. Conditions: among the four crystalline forms A, B, C and D.
The nature of data set [2]: hygroscopicity of the crystal forms. Format: physicochemical. Particulars: compared with the other crystal forms (A, C, D).

For “4″-deoxy-4″-epi-methylamino avermectin B1a/B1b, benzoic acid salt, hemihydrate [Type B]”, the “thermodynamic stability of crystalline form” value in data set [1] is “most thermodynamically stable”. Moreover, the hygroscopicity result in data set [2] is reported as “significantly less hygroscopic”.

Values taken from US6486195B1, “Thermodynamically stable crystal form of 4″-deoxy-4″-epi-methylamino avermectin B1a/B1b benzoic acid salt and processes for its preparation” (Merck & Co., Inc., priority 1993, dated 2002).
